The test system of data set [1] is Mus musculus. Briefly: Analgesic activity against formalin-induced acute pain in po dosed ICR mouse assessed as paw licking for 0 to 5 mins. The class given is functional.
The subject of data set [2] is Mus musculus. Briefly: Analgesic activity against po dosed ddY mouse assessed as time spent motionless on the ring for 5 mins by ring catalepsy test. The class given is functional.
The species named for data set [3] is Mus musculus. Briefly: Ratio of ED50 for analgesic activity in ddY mouse by ring-catalepsy test to ED50 for analgesic activity against formalin-induced inflammatory pain in ICR mouse. It is filed as functional.
The nature of data set [4]: Cmax in rat at 2 mg/kg, iv and 3 mg/kg, po. The class given is ADME, organism-based. The settings on record: in vivo.
Data set [5] has as its target T1, Cannabinoid receptor 1 (Homo sapiens, UniProt P21554). Briefly: Binding affinity to human CB1 receptor expressed in CHO cells assessed as inhibition of cAMP accumulation. The class given is functional, cell-based. Background: Changes in cAMP serve as a functional read-out for many G protein-coupled receptors.
Data set [6] is described as follows: Oral bioavailability in rat at 3 mg/kg. It is filed as ADME, organism-based. The note with it: in vivo.
Data set [7] is described as follows: AUC in rat at 3 mg/kg, po. It is filed as ADME, organism-based. More on the design: dose 3 mg/kg, route oral. The note with it: plasma.
In data set [8] the test system is Mus musculus. Briefly: Analgesic activity against formalin-induced inflammatory pain in po dosed ICR mouse assessed as paw licking for 10 to 30 mins. It is filed as functional.
For data set [9], the target named is T1, Cannabinoid receptor 1. The data set is described as follows: Binding affinity to human CB1 receptor.
The target in data set [10] is Cannabinoid receptor 2 (Homo sapiens, UniProt P34972). Briefly: Binding affinity to human CB2 receptor.
Data set [11] in a line: Total clearance in rat at 2 mg/kg, iv and 3 mg/kg, po. The class given is ADME, organism-based. The settings on record: in vivo.
The target of data set [12] is Cannabinoid receptor 1 (Mus musculus, UniProt P47746). The data set is described as follows: Binding affinity to mouse CB1 receptor.
Data set [13] can be described thus: Half life in rat at 2 mg/kg, iv and 3 mg/kg, po. The class given is ADME, organism-based. The settings on record: in vivo.

T1 sequence (P21554 whole entry): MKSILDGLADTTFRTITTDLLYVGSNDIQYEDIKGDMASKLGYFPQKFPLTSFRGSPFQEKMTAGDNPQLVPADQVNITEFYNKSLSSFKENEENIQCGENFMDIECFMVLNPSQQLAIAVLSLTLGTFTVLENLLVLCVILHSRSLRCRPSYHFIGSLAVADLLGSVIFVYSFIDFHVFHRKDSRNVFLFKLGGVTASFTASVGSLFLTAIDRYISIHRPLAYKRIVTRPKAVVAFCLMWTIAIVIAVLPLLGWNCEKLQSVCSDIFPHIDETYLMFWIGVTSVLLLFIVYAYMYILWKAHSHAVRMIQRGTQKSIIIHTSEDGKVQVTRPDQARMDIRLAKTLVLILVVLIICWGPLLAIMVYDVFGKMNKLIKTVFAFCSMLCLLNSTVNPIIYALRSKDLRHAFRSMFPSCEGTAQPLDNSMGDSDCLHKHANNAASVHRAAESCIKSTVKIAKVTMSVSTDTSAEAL
Chain of Cannabinoid receptor 2 (P34972 whole entry): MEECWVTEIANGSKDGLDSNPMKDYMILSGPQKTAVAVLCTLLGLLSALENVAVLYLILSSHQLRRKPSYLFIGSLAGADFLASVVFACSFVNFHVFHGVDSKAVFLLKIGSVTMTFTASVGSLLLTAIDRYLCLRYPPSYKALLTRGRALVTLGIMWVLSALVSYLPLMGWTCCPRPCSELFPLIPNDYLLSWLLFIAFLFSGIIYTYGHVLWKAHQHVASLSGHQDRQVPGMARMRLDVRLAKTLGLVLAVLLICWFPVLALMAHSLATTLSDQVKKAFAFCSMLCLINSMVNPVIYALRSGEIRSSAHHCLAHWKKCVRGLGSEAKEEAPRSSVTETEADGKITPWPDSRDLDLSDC
Chain of Cannabinoid receptor 1 (Mus musculus, UniProt P47746) (P47746 whole entry): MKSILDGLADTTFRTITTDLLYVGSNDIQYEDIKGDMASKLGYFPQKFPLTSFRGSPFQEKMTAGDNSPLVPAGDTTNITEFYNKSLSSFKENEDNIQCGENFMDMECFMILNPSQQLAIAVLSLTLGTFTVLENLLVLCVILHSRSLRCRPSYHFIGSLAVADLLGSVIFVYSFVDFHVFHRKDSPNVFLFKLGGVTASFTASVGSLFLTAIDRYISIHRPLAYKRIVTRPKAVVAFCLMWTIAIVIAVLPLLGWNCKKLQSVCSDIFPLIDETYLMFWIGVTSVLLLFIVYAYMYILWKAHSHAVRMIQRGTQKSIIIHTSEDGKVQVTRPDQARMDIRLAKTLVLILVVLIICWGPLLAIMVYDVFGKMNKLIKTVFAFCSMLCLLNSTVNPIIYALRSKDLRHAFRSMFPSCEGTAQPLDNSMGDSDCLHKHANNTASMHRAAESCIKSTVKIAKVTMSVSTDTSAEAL

For the compound `CSC(=S)N1CC2(CCCCC2)CS/C1=N\c1cccc2ccccc12`, the 50% effective dose (ED50) in data set [1] turned out to be 1.5 mg/kg; in [2], 19.2 mg/kg; in data set [8], 1 mg/kg. The “Ratio ED50” value in [3] amounted to 19.2. Moreover, the peak level in [4] (Cmax) was 0.16 µg/mL. For the same compound, in [5], the IC50 came out at 10 nM. Also, the bioavailability in [6] stood at 80%. The AUC in data set [7] was determined as 1.39 µg·h/mL.
Consider `CSC(=S)N1CC2(CCCCC2)CO/C1=N\c1cc(C(C)(C)C)on1`, for which the Ki is 17 nM in data set [9] and 4.7 nM in data set [10].
In the case of `COc1ccccc1/N=C1\OCC2(CCCCC2)CN1C(=S)SC`, the Ki in data set [9] turned out to be 59 nM; in data set [10], 0.9 nM.
On the same counts, the results for `CSC(=S)N1CC2(CCCCC2)CO/C1=N\c1cccc2nonc12` are 152 nM and 6.8 nM.
Regarding `CSC(=O)N1CC2(CCCCC2)CO/C1=N\c1cccc2ccccc12`, the values for the Ki in data set [9] and in data set [10] were 31 nM and 5.8 nM, respectively.
Turning to `CSC(=S)N1CC2(CCCCC2)CO/C1=N\c1ccccc1`, the Ki in [9] came to 515 nM; in data set [10], 11 nM.
The matching figures for `CSC(=O)N1CC2(CCCCC2)CS/C1=N\c1cccc2ccccc12`: 49 nM and 1.5 nM.
The matching figures for `CSC(=S)N1CC2(CCCCC2)CO/C1=N\c1cccc2c1CCCC2`: 14 nM and 1 nM.
In the case of `CSC(=S)N1CC2(CCCCC2)CO/C1=N\c1ccc(Cl)c2c1CCCC2`, the inhibition constant (Ki) stood at 76 nM in data set [9] and 5.8 nM in data set [10].
Turning to `CSC(=S)N1CC2(CCCCC2)CO/C1=N\c1cc(C(C)(C)C)no1`, the values for the inhibition constant Ki in data set [9] and in data set [10] were 0.9 nM and 1 nM, respectively.
On the same counts, the results for `CSC(=S)N1CC2(CCCCC2)CO/C1=N\c1ccc(N(C)C)c2ccccc12` are 4.9 nM and 6.6 nM.
With `CSC(=S)N1CC2(CCCCC2)CO/C1=N\c1ccc(C#N)c2c1CCCC2`, the results for the inhibitory constant (Ki) in data set [9] and in [10] were 101 nM and 1.9 nM, respectively.
For `CSC(=S)N1CC2(CCCCC2)CO/C1=N\c1ccc(F)c2ccccc12`, the results for the inhibition constant Ki in [9] and in data set [10] were 4.9 nM and 0.8 nM, respectively.
Consider `CSC(=S)N1CC2(CCCCC2)CO/C1=N\c1ccc(Cl)c2ccccc12`, for which the 50% effective dose (ED50) in [1] was 1.9 mg/kg; in [2], 25.6 mg/kg; in data set [8], 0.64 mg/kg. Further, in [3], the “Ratio ED50” value stood at 40. The compound further gave a Cmax in data set [4] of 0.28 µg/mL. Further, in data set [5], the IC50 is 8 nM. Moreover, the clearance in data set [11] came to 0.882 L/h/kg. Also, the Ki in data set [12] is 0.7 nM; in [9] it was 3.4 nM; in [10], 0.9 nM. This compound also registered a bioavailability in data set [6] of 35%. This compound displayed an AUC in data set [7] of 1.21 µg·h/mL. This compound had a half-life in data set [13] of 2.2 h.
Consider `CSC(=S)N1CC2(CCCCC2)CO/C1=N\c1ccc(C#N)c2ccccc12`, for which the Ki in data set [9] stood at 9.2 nM; in data set [10], 1.8 nM.
Consider `CSC(=S)N1CC2(CCCCC2)CO/C1=N\c1nc(C(C)(C)C)cs1`, for which the Ki in data set [9] and in data set [10] was 1 nM in each case.
On to `CSC(=O)N1CC2(CCCCC2)CN/C1=N\c1cccc2ccccc12`, for which the Ki was 624 nM in [9] and 155 nM in data set [10].
The matching figures for `CSC(=S)N1CC2(CCCCC2)CO/C1=N\c1cccc2ccccc12`: 9.3 nM and 0.9 nM.
In the case of `CCC(CC)(CC)c1cc(/N=C2\OCC3(CCCCC3)CN2C(=S)SC)on1`, the inhibition constant (Ki) in [9] and in data set [10] was 1 nM throughout.
As to `CSC(=S)N1CC2(CCCCC2)CO/C1=N\c1ccc([N+](=O)[O-])c2ccccc12`, the results for the inhibition constant (Ki) in [9] and in data set [10] were 14 nM and 2.4 nM, respectively.

What is called ED50 is the dose that gives a 50% effect, or the effect in half of the subjects. By Cmax is commonly meant the peak of the concentration-time curve. A word on the IC50: it is the concentration needed to halve the response being measured. The term bioavailability denotes the share of a dose that reaches the circulation, judged against a reference dose that is usually intravenous. High values mean good availability, low ones poor availability. One may read the AUC as the area under the concentration-time curve, a measure of exposure. Read a low AUC as less exposure. The term Ki denotes a dissociation constant, usually derived from enzyme kinetics or from competition with a known ligand. A high value points to weaker binding. What is called half-life is how long it takes for the measured level to halve. A low value points to rapid decline.

The record behind these values is ChEMBL document CHEMBL1141006, “2-Arylimino-5,6-dihydro-4H-1,3-thiazines as a new class of cannabinoid receptor agonists. Part 3: Synthesis and activity of isosteric analogs” (Bioorg Med Chem Lett, 2008).
